“And” between values parts separate entries of the source, which are not always exact repeats. Identical values can stand only once.
Tests used:
[1] = Selectivity index, ratio of CC50 for Cytotoxicity against Swiss mouse peritoneal macrophages to EC50 for intracellular Leishmania infantum MHOM/MA(BE)/67 ITMAP263 amastigotes infected in Swiss mouse peritoneal macrophages; type: toxicity, cell-based; conditions: read-out: Ratio CC50/EC50
[2] = Cytotoxicity against human MRC5 cells assessed as reduction in cell viability incubated for 3 days by resazurin dye based fluorescence analysis; type: toxicity; conditions: time 3 day
[3] = tested on: Leishmania infantum; experiment: (§1) Antileishmanial activity against sodium stibogluconate and potassium antimonyl tartrate resistant intracellular Leishmania infantum MHOM/FR/96/LEM3323-CI4 promastigotes infected in Swiss mouse peritoneal macrophages assessed as inhibition of parasite growth measured after 96 hrs by microscopic analysis; type: functional, organism-based; conditions: MHOM/FR/96/LEM3323-CI4, Peritoneal macrophage
[4] = tested on: Leishmania infantum; experiment: as §1, with “stibogluconate,” for “stibogluconate and”, “tartrate and MIL” for “tartrate”, “MHOM/FR/96/LEM3323-CI4 MIL5C13” for “MHOM/FR/96/LEM3323-CI4”; type: functional, organism-based; conditions: MHOM/FR/96/LEM3323-CI4 MIL5C13, Peritoneal macrophage
[5] = tested on: Leishmania infantum; experiment: as §1, with “stibogluconate,” for “stibogluconate and”, “tartrate and PMM” for “tartrate”, “MHOM/FR/96/LEM3323-CI4 PMM” for “MHOM/FR/96/LEM3323-CI4”; type: functional, organism-based; conditions: Peritoneal macrophage
[6] = tested on: Trypanosoma cruzi; experiment: Antitrypanosomal activity against nifurtimox-sensitive Tulahuen CL2 amastigotes expressing beta galactosidase infected in human MRC5 cells assessed as inhibition of parasite growth using chlorophenol red beta-D-galactopyranoside as substrate and measured after 7 days by spectrophotometric analysis; type: functional, organism-based; conditions: Tulahuen CL2, MRC5, 168 h, read-out: EC50
[7] = Metabolic stability in golden hamster liver microsomes S9 fraction assessed as CYP450-mediated metabolism by measuring parent compound remaining measured after 15 mins in presence of NADPH; type: ADME, subcellular, Mesocricetus auratus; conditions: read-out: Stability
[8] = Metabolic stability in mouse liver microsomes S9 fraction assessed as UGT-mediated metabolism by measuring parent compound remaining measured after 60 mins in presence of NADPH; type: ADME, subcellular; conditions: read-out: Stability
[9] = Metabolic stability in mouse liver microsomes S9 fraction assessed as UGT-mediated metabolism by measuring parent compound remaining measured after 30 mins in presence of NADPH; type: ADME, subcellular; conditions: read-out: Stability
[10] = Metabolic stability in mouse liver microsomes S9 fraction assessed as CYP450-mediated metabolism by measuring parent compound remaining measured after 60 mins in presence of NADPH; type: ADME, subcellular; conditions: read-out: Stability
[11] = Metabolic stability in mouse liver microsomes S9 fraction assessed as CYP450-mediated metabolism by measuring parent compound remaining measured after 30 mins in presence of NADPH; type: ADME, subcellular; conditions: read-out: Stability
[12] = Metabolic stability in mouse liver microsomes S9 fraction assessed as CYP450-mediated metabolism by measuring parent compound remaining measured after 15 mins in presence of NADPH; type: ADME, subcellular; conditions: read-out: Stability
[13] = Selectivity index, ratio of CC50 for cytotoxicity against human MRC5 cells to EC50 for Trypanosoma cruzi Tulahuen CL2 amastigotes expressing beta galactosidase infected in human MRC5 cells; type: toxicity, cell-based; conditions: read-out: Ratio CC50/EC50
[14] = Metabolic stability in mouse liver microsomes S9 fraction assessed as UGT-mediated metabolism by measuring parent compound remaining measured after 15 mins in presence of NADPH; type: ADME, subcellular; conditions: read-out: Stability
[15] = Metabolic stability in golden hamster liver microsomes S9 fraction assessed as UGT-mediated metabolism by measuring parent compound remaining measured after 15 mins in presence of NADPH; type: ADME, subcellular, Mesocricetus auratus; conditions: read-out: Stability
[16] = Metabolic stability in golden hamster liver microsomes S9 fraction assessed as UGT-mediated metabolism by measuring parent compound remaining measured after 30 mins in presence of NADPH; type: ADME, subcellular, Mesocricetus auratus; conditions: read-out: Stability
[17] = Metabolic stability in golden hamster liver microsomes S9 fraction assessed as UGT-mediated metabolism by measuring parent compound remaining measured after 60 mins in presence of NADPH; type: ADME, subcellular, Mesocricetus auratus; conditions: read-out: Stability
[18] = target: Cytochrome P450 (Homo sapiens, UniProt P04798+P05177+P05181+P08684+P10632+P10635+P11509+P11712+P13584+P20813+P20815+P20853+P24462+P24903+P33260+P33261+P51589+P78329+P98187+Q02928+Q08477+Q16678+Q16696+Q5TCH4+Q6VVX0+Q7Z449+Q8TAV3+Q96SQ9+Q9HB55); experiment: Metabolic stability in human liver microsomes S9 fraction assessed as CYP450-mediated metabolism by measuring parent compound remaining measured after 30 mins in presence of NADPH; type: ADME, subcellular; conditions: read-out: Stability
[19] = target: UDP-glucuronosyltransferases (UGTs) (Homo sapiens, UniProt O60656+O75310+O75795+P06133+P0DTE4+P0DTE5+P16662+P19224+P22309+P22310+P35503+P35504+P36537+P54855+Q6UWM9+Q9BY64+Q9HAW7+Q9HAW8+Q9HAW9); experiment: Metabolic stability in human liver microsomes S9 fraction assessed as UGT-mediated metabolism by measuring parent compound remaining measured after 15 mins in presence of NADPH; type: ADME, subcellular; conditions: read-out: Stability
[20] = tested on: Leishmania infantum; experiment: Antileishmanial activity against intracellular Leishmania infantum MHOM/MA(BE)/67 amastigotes infected in golden hamster assessed as reduction of amastigote burdens in spleen at 50 mg/kg, po SID for 10 days by geimsa staining based microscopic analysis; type: functional; design: scale not given: the % may be the effect or the level left; conditions: time 10 day
[21] = tested on: Leishmania infantum; experiment: Antileishmanial activity against intracellular Leishmania infantum MHOM/MA(BE)/67 amastigotes infected in golden hamster assessed as reduction of amastigote burdens in bone marrow at 50 mg/kg, po SID for 10 days by geimsa staining based microscopic analysis; type: functional; design: scale not given: the % may be the effect or the level left; conditions: time 10 day
[22] = Cmax in golden hamster infected with Leishmania infantum MHOM/MA(BE)/67 amastigotes at 50 mg/kg, po SID and measured after 24 hrs by LC-MS/MS analysis; type: ADME, organism-based, Mesocricetus auratus; design: time 24 hrs, dose 50 mg/kg, route po; conditions: in vivo
[23] = AUC (0 to 8) in golden hamster infected with Leishmania infantum MHOM/MA(BE)/67 amastigotes at 50 mg/kg, po SID and measured after 24 hrs by LC-MS/MS analysis; type: ADME, organism-based, Mesocricetus auratus; design: dose 50 mg/kg, time 24 hrs, route po; conditions: in vivo
[24] = AUC (0 to 24) in golden hamster infected with Leishmania infantum MHOM/MA(BE)/67 amastigotes at 50 mg/kg, po SID and measured after 24 hrs by LC-MS/MS analysis; type: ADME, organism-based, Mesocricetus auratus; design: time 24 hrs, dose 50 mg/kg, route po; conditions: in vivo
[25] = Volume of distribution in golden hamster infected with Leishmania infantum MHOM/MA(BE)/67 amastigotes at 50 mg/kg, po SID and measured after 24 hrs by LC-MS/MS analysis; type: ADME, organism-based, Mesocricetus auratus; conditions: in vivo
[26] = Tmax in golden hamster infected with Leishmania infantum MHOM/MA(BE)/67 amastigotes at 50 mg/kg, po SID and measured after 10 days by LC-MS/MS analysis; type: ADME, organism-based, Mesocricetus auratus; conditions: in vivo, time 10 day
[27] = AUC (0 to 8) in golden hamster infected with Leishmania infantum MHOM/MA(BE)/67 amastigotes at 50 mg/kg, po SID and measured after 10 days by LC-MS/MS analysis; type: ADME, organism-based, Mesocricetus auratus; design: dose 50 mg/kg, time 10 day, route po; conditions: in vivo
[28] = AUC (0 to 24) in golden hamster infected with Leishmania infantum MHOM/MA(BE)/67 amastigotes at 50 mg/kg, po SID and measured after 10 days by LC-MS/MS analysis; type: ADME, organism-based, Mesocricetus auratus; design: dose 50 mg/kg, time 10 day, route po; conditions: in vivo
[29] = Volume of distribution in golden hamster infected with Leishmania infantum MHOM/MA(BE)/67 amastigotes at 50 mg/kg, po SID and measured after 10 days by LC-MS/MS analysis; type: ADME, organism-based, Mesocricetus auratus; conditions: in vivo, 240 h, time 10 day
[30] = Toxicity in golden hamster infected with Leishmania infantum MHOM/MA(BE)/67 amastigotes assessed as gross pathological changes at 50 mg/kg, po SID and measured after 10 days; type: organism-based, Mesocricetus auratus; conditions: in vivo, 240 h, time 10 day

Q: For `Cc1ncnc2c1c(-c1cc(Cl)ccn1)cn2[C@@H]1O[C@H](CO)[C@@H](O)[C@H]1O`, which selectivity ratio [1] is on record?
A: > 94

Q: What about the CC50 at 72 h [2] of the same molecule?
A: > 64 µM

Q: And the EC50 [3]?
A: 2.21 µM

Q: What about the EC50 [4] of the same molecule?
A: 0.73 µM

Q: And the EC50 [5]?
A: 0.79 µM

Q: What about the EC50 [6] of the same molecule?
A: 0.83 µM

Q: And the remaining at 0.25 h [7]?
A: 96%

Q: And the remaining at 1 h [8]?
A: 100%

Q: What about the remaining at 0.5 h [9] of the same molecule?
A: 102%

Q: What about the remaining at 1 h [10] of the same molecule?
A: 94%

Q: What about the remaining at 0.5 h [11] of the same molecule?
A: 86%

Q: And the remaining at 0.25 h [12]?
A: 109%

Q: And the selectivity ratio [13]?
A: > 77

Q: And the remaining at 0.25 h [14]?
A: 103%

Q: What about the remaining at 0.25 h [15] of the same molecule?
A: 98%

Q: What about the remaining at 0.5 h [16] of the same molecule?
A: 92%

Q: And the remaining at 1 h [17]?
A: 89%

Q: And the remaining at 0.5 h [18]?
A: 86%

Q: What about the remaining at 0.25 h [19] of the same molecule?
A: 93%

Q: And the Activity [20]?
A: -1.8%

Q: And the Activity [21]?
A: 30.8%

Q: What about the Cmax [22] of the same molecule?
A: 1100 ng/mL and 2.9 µM

Q: And the AUC at 24 h [23]?
A: 1660 ng·h/mL

Q: And the AUC at 24 h [24]?
A: 2080 ng·h/mL

Q: What about the Vd [25] of the same molecule?
A: 13 L/kg

Q: What about the Tmax [26] of the same molecule?
A: 30 min

Q: What about the AUC at 240 h [27] of the same molecule?
A: 2840 ng·h/mL

Q: And the AUC at 240 h [28]?
A: 3380 ng·h/mL

Q: And the Vd [29]?
A: 5.14 L/kg

Q: What about the Activity [30] of the same molecule?
A: Non-Toxic
